Results as given in patent US8828682B2, “Methods and articles for detecting hemolytic microorganisms” (priority 2008, dated 2014).
Like-named read-outs stand apart in the source and are kept apart here.

Experiments:
[1] = system: methicillin-resistant S. aureus (strain 565, clinical isolate); assay type: cell-based, Staphylococcus aureus; conditions: 35° C., 10% sheep blood in PBS
Protocol: (§1) Antibiotic stock solutions (3 mg/mL and 4 mg/mL) were individually prepared in DI water. The solutions were filter-sterilized. The antibiotics included cefoxitin, cefazolin, and cefuroxime. The antibiotics were diluted 1:1000 into PBS/sheep blood aliquots to achieve final antibiotic concentrations of 3 μg/mL and 4 μg/mL, respectively.
(§2) The bacterial suspensions were subjected to two serial 1:100 dilutions in sterile PBS. The diluted suspensions were then further subjected to a 1:100 dilution into each of the respective PBS/sheep blood mixtures containing an antibiotic. One milliliter of each final suspension; containing sheep blood, microorganisms, and an antibiotic in PBS; was into a PAC plate as described above. The plates were incubated at 35° C. for 48 hours. Each plate was checked for colony growth and hemolytic zone after 24 and 48 hours of incubation.

[2] = system: methicillin-resistant S. epidermidis (strain 497, clinical isolate); assay: Growth and hemolysis in PAC thin film culture plates with antibiotic in PBS/10% sheep blood diluent; assay type: cell-based, Staphylococcus epidermidis; conditions: 35° C., 10% sheep blood in PBS
Protocol: as §1, §2

CO[C@@]1(NC(=O)Cc2cccs2)C(=O)N2C(C(=O)O)=C(COC(N)=O)CS[C@@H]21 [Cefo, cefoxitin]
+/+: Growth ([1]; antibiotic 3 μg/mL, 24 hours) | Hemolysis ([1]; antibiotic 3 μg/mL, 24 hours) | Growth ([1]; antibiotic 3 μg/mL, 48 hours) | Hemolysis ([1]; antibiotic 3 μg/mL, 48 hours) | Growth ([1]; antibiotic 4 μg/mL, 24 hours) | Hemolysis ([1]; antibiotic 4 μg/mL, 24 hours) | Growth ([1]; antibiotic 4 μg/mL, 48 hours) | Hemolysis ([1]; antibiotic 4 μg/mL, 48 hours) | Growth ([2]; antibiotic 3 μg/mL, 24 hours) | Growth ([2]; antibiotic 3 μg/mL, 48 hours) | Growth ([2]; antibiotic 4 μg/mL, 24 hours) | Growth ([2]; antibiotic 4 μg/mL, 48 hours)

CO/N=C(\C(=O)N[C@@H]1C(=O)N2C(C(=O)O)=C(COC(N)=O)CS[C@H]12)c1ccco1 [Cefu, cefuroxime]
+/+: Growth ([1]; antibiotic 3 μg/mL, 24 hours) | Hemolysis ([1]; antibiotic 3 μg/mL, 24 hours) | Growth ([1]; antibiotic 3 μg/mL, 48 hours) | Hemolysis ([1]; antibiotic 3 μg/mL, 48 hours) | Growth ([1]; antibiotic 4 μg/mL, 24 hours) | Hemolysis ([1]; antibiotic 4 μg/mL, 24 hours) | Growth ([1]; antibiotic 4 μg/mL, 48 hours) | Hemolysis ([1]; antibiotic 4 μg/mL, 48 hours) | Growth ([2]; antibiotic 3 μg/mL, 24 hours) | Growth ([2]; antibiotic 3 μg/mL, 48 hours) | Growth ([2]; antibiotic 4 μg/mL, 24 hours) | Growth ([2]; antibiotic 4 μg/mL, 48 hours)
